Reference: patent publication US20020061927A1, “Insulin receptor activators for the treatment of metabolic disorders induced by treatment with HIV protease inhibitors” (priority 2000, published 2002)

Tests used:
[1] = system: 3T3 L1 adipocytes; assay: Reversal of HIV protease inhibitor block of glucose transport in cells (14C-2-deoxy-D-glucose uptake); type: cell-based; conditions: for effect of HIV protease inhibitor drug on glucose transport activity: 3T3 L1 adipocytes; for glucose transport: 3T3 L1 cells; for effect on glucose transport activity inhibited by HIV protease inhibitor drugs: 3T3 L1 adipocytes in presence of Ritonavir, Indinavir or Amprenavir
Procedure: Stimulation of the insulin receptor leads to the transport of glucose from the blood into cells, thus modulating blood glucose levels. 3T3 L1 fibroblasts (ATCC) were grown in Dulbecco's modified Eagle's medium (DMEM) with 10% fetal bovine serum (FBS). The cells were plated at a density of 3×10^4 cells/ml in 96 well plates (0.1 ml/well). Two days after confluence was reached, the cells were treated for 3 days with 0.5 mM isobutylmethylxanthine (IBMX), 1 μM dexamethasone, and 1.7 μM insulin. The cells were then transferred to DMEM with 10% FBS and supplemented with 1.7 μM insulin for 2 more days. The cells were maintained in DMEM with 10% FBS for an additional 4 days. Finally, the cells were serum starved overnight in 0.1% bovine serum albumin (BSA) in DMEM.
The following day, the cells were pretreated with Indinavir, Ritonavir, or Amprenavir (at the concentrations indicated in the Tables below) in a buffer containing 150 mM NaCl, 1.7 mM KCl, 0.9 mM CaCl2 1.47 mM K2HPO4 (pH 7.4) and 0.01% BSA for 6 minutes followed by treatment with a compound described in this patent (56 μM compound 1; 20 μM compound 2) with or without 100 nM insulin for 30 minutes. Following incubation, the cells were labeled with ^14C-labeled 2-deoxy-D-glucose (0.5 μCi/ml) and incubation was continued for additional 30 minutes at 37° C. The cells were then washed 3 times with ice-cold PBS/20 mM glucose and lysed in 100 μl of lysis buffer (50 mM Hepes pH 7.6, 1% Triton X-100) for 30 minutes at room temperature. Radioactivity in the lysate was quantified by scintillation counting.
Once ^14C-2-deoxy-D-glucose is transported into the cells, it is not released. Glucose transport is, therefore, proportional to the amount of radioactivity in the lysate.

[2] = system: male CD rats; assay: Reversal of protease inhibitor-mediated insulin resistance in normal rats (oral glucose challenge); type: in vivo, rat; conditions: indinavir sulfate plus compound 1, oral
Procedure: Seven to nine week-old male CD rats (Charles River Laboratories, Hollister, Calif.) were used to study the effects of protease inhibitor and compound 1. Animals were kept in a 12 h/12 h light/dark cycle and were fasted overnight.
Indinavir sulfate was prepared in water, and compound 1 was prepared in PBS. Seven animals (average weight 300 grams) were used in each treatment condition. The animals were treated with vehicle or indinavir sulfate or indinavir sulfate plus compound 1 by oral administration. After 30 min, the animals were challenged with oral glucose load (2 g/kg), and blood glucose measurements were taken at 0 min, 10 min, 20 min, 30 min, 60 min, 90 min and 120 min by tail bleeding. Glucose measurements were made with a Glucometer and Glucose strips (Bayer).
The blood glucose levels are reported as the percentage of the values before challenge (“zero time” values).
Blood samples obtained from 0 min and 30 min time points were analysed for plasma insulin levels by ELISA (ALPCO Diagnostics, Windham, N.H.).

[3] = 5 μM Amprenavir pretreatment, 56 μM compound 1 / 20 μM compound 2
[4] = 5 μM Indinavir pretreatment, 56 μM compound 1 / 20 μM compound 2
[5] = 10 μM Amprenavir pretreatment, 56 μM compound 1 / 20 μM compound 2
[6] = 10 μM Indinavir pretreatment, 56 μM compound 1 / 20 μM compound 2
[7] = 20 μM Indinavir pretreatment, 56 μM compound 1 / 20 μM compound 2

Compound | effect of HIV protease inhibitor drug on glucose transport activity [1] | glucose transport [1, 3] | glucose transport [1, 4] | glucose transport ([1]; 5 μM Ritonavir pretreatment, 56 μM compound 1) | glucose transport [1, 5] | glucose transport [1, 6] | glucose transport ([1]; 20 μM Amprenavir pretreatment, 56 μM compound 1) | glucose transport [1, 7] | effect on glucose transport activity inhibited by HIV protease inhibitor drugs [1] | protease inhibitor-mediated insulin resistance [2]
CC(C)CN(C[C@@H](O)[C@H](Cc1ccccc1)NC(=O)O[C@H]1CCOC1)S(=O)(=O)c1ccc(N)cc1 [Amprenavir, reference compound] | inhibited | – | – | – | – | – | – | – | – | –
O=C(Nc1ccc2c(O)cc(S(=O)(=O)Nc3ccc(Cl)c(S(=O)(=O)O)c3)cc2c1)Nc1ccc2c(O)cc(S(=O)(=O)Nc3ccc(Cl)c(S(=O)(=O)O)c3)cc2c1 [Compound 1] | – | 1.83 fold over fold over 50 nM insulin | 1.34 fold over fold over 50 nM insulin | 1.32 foldover fold over 50 nM insulin | 1.53 fold over fold over 50 nM insulin | 1.16 fold over fold over 50 nM insulin | 1.21 fold over fold over 50 nM insulin | 1.12 fold over fold over 50 nM insulin | increase the glucose transport activity | Reversal of Protease Inhibitor-mediated Insulin Resistance
O=C(Nc1ccc2c(O)c(/N=N/c3ccc(/N=N/c4ccc(S(=O)(=O)O)cc4)cc3S(=O)(=O)O)c(S(=O)(=O)O)cc2c1)Nc1ccc2c(O)cc(S(=O)(=O)O)c(N=Nc3ccc(/N=N/c4ccc(S(=O)(=O)O)cc4)cc3S(=O)(=O)O)c2c1 [Compound 2] | – | 1.25 foldover fold over 50 nM insulin | 1.38 fold over fold over 50 nM insulin | – | 1.07 foldover fold over 50 nM insulin | 1.25 fold over fold over 50 nM insulin | – | 1.02 fold over fold over 50 nM insulin | increase the glucose transport activity | –
CC(C)(C)NC(=O)[C@@H]1CN(Cc2cccnc2)CCN1C[C@@H](O)C[C@@H](Cc1ccccc1)C(=O)N[C@H]1c2ccccc2C[C@H]1O [Indinavir, reference compound] | inhibited | – | – | – | – | – | – | – | – | –
CC(C)c1nc(CN(C)C(=O)N[C@H](C(=O)N[C@@H](Cc2ccccc2)C[C@H](O)[C@H](Cc2ccccc2)NC(=O)OCc2cncs2)C(C)C)cs1 [Ritonavir, reference compound] | inhibited | – | – | – | – | – | – | – | – | –
